The text below walks through data of patent publication US20240368174A1, “Antiviral Heterocyclic Compounds” (Enanta Pharmaceuticals, Inc., priority 2023, published 2024).

The first test has as its system HMPV clinical isolate A2 strain TN 94-49. Kind of test: HMPV antiviral assay, Method 2 (LLC-MK2 cells with CP-100-356, ATP-Lite). Type of test: cell-based. As to conditions: human metapneumovirus, 168 h; hMPV A2 TN/94-49, LLC-MK2 cells with 4 μM CP-100-356, 7 days, ATP-Lite. The method, boiled down:
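LLC-MK2 rhesus kidney cells (5,000/well) infected in suspension with HMPV A2 TN 94-49 at MOI 0.16, in serum-free medium with final 2 μg/mL TPCK-trypsin and 2 μM CP-100-356. Compounds tested in duplicate from 200 nM, 2.5-fold, 10 points; 7 days at 37 °C. Cell health by ATP-Lite luminescence; EC50 by four-parameter fit.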
With `COc1cccc2c1ccn2-c1nc([C@@](O)(CNC(=O)c2cc(OC)c3nn(C4CC4)cc3c2)C2CC2)cc2c1OC[C@]2(C)C(N)=O` [Example 839], the 50% effective concentration (EC50) was below 0.2 µM. Same read-out and setting: next, `C[C@]1(C(N)=O)COc2c1cc([C@@](O)(CNC(=O)c1cc(OC3CC3)c3nn(C4CC4)cc3c1)C1CC1)nc2-n1ncc2c(F)cccc21` [Example 650]: below 0.2 µM. The same measure, in the same setting: for `COc1cc(C(=O)NC[C@](O)(c2cc3c(c(-c4c(C)cncc4C)n2)OC[C@]3(C)C(N)=O)C2CC2)cc2cn(C3CC3)nc12` [Example 726] the value was below 0.2 µM; for `COc1cc(-c2nc([C@@](O)(CNC(=O)c3cc(OC)c4nn(C5CC5)cc4c3)C3CC3)cc3c2OC[C@]3(C)C(N)=O)c(Cl)cn1` [Example 834], above 0.2 µM; for `COc1cc(C(=O)NC[C@](O)(c2cc3c(c(-n4ncc5c4CCCC5)n2)OC[C@]3(C)C(N)=O)C2CC2)cc2cn(C3(F)CC3)nc12` [Example 643], above 0.2 µM.

The molecule `COc1cc(-c2nc([C@@](O)(CNC(=O)c3cc(OC)c4nn(C5CC5)cc4c3)C(F)(F)F)cc3c2OC[C@]3(C)C(N)=O)c(F)cn1` [Example 831] yielded an EC50 above 0.2 µM.

`COc1nccc(-c2nc([C@@](O)(CNC(=O)c3cc(OC4CC4)c4nn(C5CC5)cc4c3)C(C)C)cc3c2OC[C@]3(C)C(N)=O)c1Cl` [Example 893] yielded a half-maximal effective concentration (EC50) below 0.2 µM. Same read-out and setting: next, `COc1nccc(-c2nc([C@@](O)(CNC(=O)c3cc(OC)c4nn(C5CC5)cc4c3)c3ccc(F)cc3)cc3c2OC[C@]3(C)C(N)=O)c1Cl` [Example 696]: below 0.2 µM; `COc1cc(C(=O)NCC(O)(c2cc3c(c(-c4cc(C(F)(F)F)ncc4Cl)n2)OC[C@]3(C)C(N)=O)C2CC2)cc2cn(C3CC3)nc12` (stereo partly drawn) [Example 870]: above 0.2 µM; `COc1nccc(-c2nc([C@@](O)(CNC(=O)c3cc(OC)c4nn(C5(F)CC5)cc4c3)C3(F)CC3)cc3c2OC[C@]3(C)C(N)=O)c1Cl` [Example 654]: below 0.2 µM.

Regarding `COc1nccc(-c2nc([C@@](O)(CNC(=O)c3cc(OC)c4nn(C(F)F)cc4c3)c3ccc(F)cc3)cc3c2OC[C@]3(C)C(N)=O)c1Cl` [Example 698], the EC50 is below 0.2 µM. Same read-out and setting: next, `COc1nccc(-c2nc([C@@](O)(CNC(=O)c3cc(OC)c4nn(C5CC5)cc4c3)C3CC3)cc3c2OC[C@]3(C)C(N)=O)c1Cl` [Example 782]: below 0.2 µM; `COc1cc(C(=O)NC[C@](O)(c2cc3c(c(-c4ccnc5ccccc45)n2)OC[C@]3(C)C(N)=O)C2CC2)cc2cn(C3CC3)nc12` [Example 727]: below 0.2 µM.

Take `[2H]C([2H])([2H])c1nc2c(OC)cc(C(=O)NC[C@@](O)(c3ccccc3)c3cc4c(c(-n5ncc6c(F)cccc65)n3)OC[C@]4(C)C(N)=O)cc2s1` [Example 637]: the EC50 was below 0.2 µM.

Staying with this test, now noted: human metapneumovirus; hMPV A2 TN/94-49, LLC-MK2 cells with CP-100-356, Method 2.
Take `COc1cc(C(=O)NC[C@@](O)(c2ccccc2)c2cc3c(c(-c4cc(S(C)(=O)=O)ccc4F)n2)OC[C@]3(C)C(N)=O)cc2cn(C3(F)CC3)nc12` [Example 372]: the EC50 was above 0.2 µM.

Molecule `COc1cc(C(=O)NC[C@@](O)(c2ccccc2)c2cc3c(c(-c4cc(C(F)F)c(F)cc4F)n2)OC[C@]3(C)C(N)=O)cc2cn(C(F)F)nc12` [Example 300] gave an EC50 below 0.2 µM. The same measure, in the same setting: next, `COc1cc(C(=O)NC[C@@](O)(c2ccccc2)c2cc3c(c(-c4cc(F)c(F)cc4F)n2)OC[C@]3(C)C(N)=O)cc2oc(C)nc12` [Example 193]: below 0.2 µM; `C[C@]1(C(N)=O)COc2c1cc([C@@](O)(CNC(=O)c1cc(OC3CC3)c3nn(C4(F)CC4)cc3c1)c1cccc(F)c1)nc2-c1cccc(Cl)c1Cl` [Example 339]: below 0.2 µM; `COc1cc(C(=O)NC[C@@](O)(c2cccc(F)n2)c2cc3c(c(-c4ccc(F)c(Cl)c4Cl)n2)OC[C@]3(C)C(N)=O)cc2cn(C3CC3)nc12` [Example 340]: below 0.2 µM. In turn, `C[C@]1(C(N)=O)COc2c1cc([C@@](O)(CNC(=O)c1cc(C(F)(F)F)c3nn(C4CC4)cc3c1)c1ccccc1)nc2-c1cc(Cl)c(F)cc1F` [Example 228] returned an EC50 below 0.2 µM. Same read-out and setting: next, `COc1cc(C(=O)NC[C@](O)(c2cc3c(c(-c4cc(Cl)c(F)cc4F)n2)OC[C@]3(C)C(N)=O)C2CC2)cc(O)c1NC(=O)C1(F)CC1` [Example 236]: above 0.2 µM; `COc1cc(C(=O)NC[C@](O)(c2cc3c(c(-c4c(F)cncc4Cl)n2)OC[C@]3(C)C(N)=O)C2CC2)cc2cn(C3CC3)nc12` [Example 434]: below 0.2 µM. Still for that read-out and setting: for `C[C@]1(C(N)=O)COc2c1cc([C@@](O)(CNC(=O)c1cc(Cl)c3nn(C4CC4)cc3c1)C1CC1)nc2-c1cc(C(F)(F)F)ncc1F` [Example 353] the value was below 0.2 µM; for `COc1cc(C(=O)NC[C@@](O)(c2ccc(F)cc2)c2cc3c(c(-c4ccnc(C(F)(F)F)c4F)n2)OC[C@]3(C)C(N)=O)cc2oc(C(F)F)nc12` [Example 541], below 0.2 µM; for `COc1cc(C(=O)NC[C@@](O)(c2ccccc2)c2cc3c(c(-c4ccc5c(c4)OC(F)(F)O5)n2)OC[C@]3(C)C(N)=O)cc2cc(Cl)cnc12` [Example 202], below 0.2 µM.

On to `COc1cc(C(=O)NC[C@@](O)(c2cc3c(c(-n4ccc5ccccc54)n2)OC[C@]3(C)C(N)=O)C2CC2)cc2cn(C3CC3)nc12` [Example 444], for which the concentration giving a half-maximal response (EC50) is above 0.2 µM. Still for that read-out and setting: next, `COc1cc(C(=O)NC[C@@](O)(c2cccc(S(N)(=O)=O)c2)c2cc3c(c(-c4cc(Cl)c(F)cc4F)n2)OC[C@]3(C)C(N)=O)cc2cn(C3CC3)nc12` [Example 486]: above 0.2 µM; `COc1cc(C(=O)NC[C@@](O)(c2ccccc2)c2cc3c(c(-c4cc(Cl)c(F)cc4F)n2)OC[C@]3(C)C(N)=O)cc2c1OCCC2` [Example 93]: above 0.2 µM; `C[C@]1(C(N)=O)COc2c1cc([C@@](O)(CNC(=O)c1cc(OC3CC3)c3ncc(Cl)cc3c1)c1ccccc1)nc2-c1cc(Cl)c(F)cc1F` [Example 196]: below 0.2 µM.

Consider `Cc1nc2c(OC(F)(F)F)cc(C(=O)NC[C@@](O)(c3ccccc3)c3cc4c(c(-c5cc(Cl)c(F)cc5F)n3)OC[C@]4(C)C(N)=O)cc2s1` [Example 188], for which the 50% effective concentration (EC50) is above 0.2 µM. Same read-out and setting: for `COc1cc(C(=O)NC[C@@](O)(c2ccccc2)c2cc3c(c(-c4ccc(F)c(F)c4Cl)n2)OC[C@]3(C)C(N)=O)cc2cn(C3(F)CC3)nc12` [Example 370] the value was below 0.2 µM; for `C[C@]1(C(N)=O)COc2c1cc([C@@](O)(CNC(=O)c1ccc3nc(C4CC4)oc3c1)c1cccc(F)c1)nc2-c1ccc(F)c(Cl)c1Cl` [Example 312], below 0.2 µM. With `[2H]C([2H])([2H])NC(=O)[C@@]1(C)COc2c1cc([C@@](O)(CNC(=O)c1cc(OC)c3nc(C4CC4)oc3c1)c1ccccc1)nc2-c1cc(Cl)c(F)cc1F` [Example 110], the concentration giving a half-maximal response (EC50) was below 0.2 µM. Same read-out and setting: for `C[C@]1(C(N)=O)COc2c1cc([C@@](O)(CNC(=O)c1ccc3nc(C4(F)CC4)oc3c1)c1ccccc1)nc2-c1cc(Cl)c(F)cc1F` [Example 219] the value was below 0.2 µM; for `C[C@]1(C(N)=O)COc2c1cc([C@@](O)(CNC(=O)c1ccc3nc(C4CC4)oc3c1)c1ccccc1)nc2-c1cccc(Cl)c1Cl` [Example 97], below 0.2 µM.

`C[C@]1(C(N)=O)COc2c1cc([C@@](O)(CNC(=O)c1cc(OC3CC3)c3ncc(Cl)cc3c1)c1cccc(F)c1)nc2-c1cccc(Cl)c1Cl` [Example 334]: the concentration for a half-maximal effect (EC50) was below 0.2 µM. Still for that read-out and setting: next, `COc1cc(C(=O)NC[C@@](O)(c2cccc(F)c2)c2cc3c(c(-c4cccc(Cl)c4Cl)n2)OC[C@]3(C)C(N)=O)cc2cc(C3CC3)nn12` [Example 336]: below 0.2 µM; `COc1cc(C(=O)NCC(O)(c2ccccc2)c2cc3c(c(-c4ccc(F)c(Cl)c4)n2)OC[C@]3(C)C(N)=O)cc2cn(C3(F)CC3)nc12` (stereo partly drawn) [Example 362]: below 0.2 µM. As to `COc1cc(C(=O)NCC(O)(c2cc3c(c(-c4cc(C(F)(F)F)ncc4Cl)n2)OC[C@]3(C)C(N)=O)C2CC2)cc2cn(C3CC3)nc12` (stereo partly drawn) [Example 418], the EC50 is above 0.2 µM. The same measure, in the same setting: next, `COc1nccc(-c2nc([C@@](O)(CNC(=O)c3cc(OC)c4nc(C5CC5)oc4c3)c3ccccc3)cc3c2OC[C@]3(C)C(N)=O)c1Cl` [Example 556]: below 0.2 µM; `C[C@]1(C(N)=O)COc2c1cc([C@@](O)(CNC(=O)c1cc(OC3CC3)c3nn(C4CC4)cc3c1)C(F)(F)F)nc2-c1ccnc(C(F)(F)F)c1Cl` [Example 593]: below 0.2 µM; `COc1cccc(-c2nc([C@@](O)(CNC(=O)c3cc(OC)c4nn(C5(F)CC5)cc4c3)c3ccccc3)cc3c2OC[C@]3(C)C(N)=O)c1Cl` [Example 374]: below 0.2 µM. The same measure, in the same setting: for `C[C@]1(C(N)=O)COc2c1cc([C@@](O)(CNC(=O)c1cc(C(F)F)c3nn(C4CC4)cc3c1)c1ccccc1)nc2-c1cc(Cl)c(F)cc1F` [Example 229] the value was below 0.2 µM. `COc1cc(C(=O)NC[C@](O)(c2cc3c(c(-c4ccnc(Cl)c4C)n2)OC[C@]3(C)C(N)=O)C2CC2)cc2cn(C3CC3)nc12` [Example 427] yielded an EC50 below 0.2 µM.

`COc1cc(C(=O)NC[C@@](O)(c2ccccc2)c2cc3c(c(-c4cccc(F)c4Cl)n2)OC[C@]3(C)C(N)=O)cc2cn(C3(F)CC3)nc12` [Example 368] came in with an EC50 below 0.2 µM. In turn, `COc1cc(C(=O)NC[C@@](O)(c2ccccc2)c2cc3c(c(-c4cc(C(F)(F)F)c(F)cc4F)n2)OC[C@]3(C)C(N)=O)cc2cn(C3(F)CC3)nc12` [Example 303] registered a concentration giving a half-maximal response (EC50) below 0.2 µM.

`C[C@]1(C(N)=O)COc2c1cc([C@@](O)(CNC(=O)c1ccc3nn(C4CC4)cc3c1)c1ccccc1)nc2-c1cc(Cl)c(F)cc1F` [Example 101] came in with an EC50 below 0.2 µM.

The molecule `C[C@]1(C(N)=O)COc2c1cc([C@@](O)(CNC(=O)c1cc(OC(F)F)c3ncc(Cl)cc3c1)c1ccccc1)nc2-c1cc(Cl)c(F)cc1F` [Example 231] yielded a concentration for a half-maximal effect (EC50) below 0.2 µM.
